The values below come from article PMC6934184, “Selective DNA-PKcs inhibition extends the therapeutic index of localized radiotherapy and chemotherapy” (The Journal of Clinical Investigation, 2019).

What is called inhibition is the change of the read-out against control, counted positive when it falls. Read a high inhibition as strong suppression.

For the test, the target named is T1, HIPK2 (Homo sapiens, UniProt Q9H2X6).
T1 construct: purchased Thermo Fisher Scientific (Life Technologies) SelectScreen
T1 sequence (Q9H2X6 whole entry): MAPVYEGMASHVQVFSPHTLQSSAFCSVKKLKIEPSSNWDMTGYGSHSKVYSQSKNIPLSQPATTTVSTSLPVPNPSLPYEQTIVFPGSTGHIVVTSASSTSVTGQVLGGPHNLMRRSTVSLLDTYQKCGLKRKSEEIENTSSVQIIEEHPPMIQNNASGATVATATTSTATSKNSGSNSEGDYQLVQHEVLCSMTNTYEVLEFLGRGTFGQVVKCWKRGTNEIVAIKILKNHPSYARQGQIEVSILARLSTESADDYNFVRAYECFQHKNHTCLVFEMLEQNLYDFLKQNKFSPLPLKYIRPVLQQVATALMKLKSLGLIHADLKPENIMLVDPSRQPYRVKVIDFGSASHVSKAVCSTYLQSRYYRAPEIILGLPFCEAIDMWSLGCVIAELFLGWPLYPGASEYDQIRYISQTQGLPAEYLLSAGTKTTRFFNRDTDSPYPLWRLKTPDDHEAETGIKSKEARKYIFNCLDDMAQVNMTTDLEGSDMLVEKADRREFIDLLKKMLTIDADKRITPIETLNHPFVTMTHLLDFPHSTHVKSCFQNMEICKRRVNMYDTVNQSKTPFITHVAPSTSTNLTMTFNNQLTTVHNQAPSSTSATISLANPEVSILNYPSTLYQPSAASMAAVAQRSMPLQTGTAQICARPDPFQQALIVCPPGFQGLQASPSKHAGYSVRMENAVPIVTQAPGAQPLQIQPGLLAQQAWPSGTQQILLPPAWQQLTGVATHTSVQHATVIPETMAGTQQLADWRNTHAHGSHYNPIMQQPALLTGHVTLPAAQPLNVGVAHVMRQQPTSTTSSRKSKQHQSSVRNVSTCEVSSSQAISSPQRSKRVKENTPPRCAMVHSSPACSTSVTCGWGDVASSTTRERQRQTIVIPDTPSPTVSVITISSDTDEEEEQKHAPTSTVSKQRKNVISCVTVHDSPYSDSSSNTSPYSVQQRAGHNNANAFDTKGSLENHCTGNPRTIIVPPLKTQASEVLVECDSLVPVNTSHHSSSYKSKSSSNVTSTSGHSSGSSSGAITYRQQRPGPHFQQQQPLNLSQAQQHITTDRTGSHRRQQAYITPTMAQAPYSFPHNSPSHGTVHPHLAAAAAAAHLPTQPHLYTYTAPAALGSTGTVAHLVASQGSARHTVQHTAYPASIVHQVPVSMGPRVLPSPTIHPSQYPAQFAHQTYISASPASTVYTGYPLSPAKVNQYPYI
Nature of the test: SelectScreen Z'LYTE. Format: biochemical. The method in brief: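 SelectScreen broad panel; activity (Z'LYTE, Adapta) plus binding formats. ATP: Km app for CSF1R Z'LYTE; 10 for CAMK1 Adapta. Readout = % per kinase.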

`CN(C(=O)CN1CCOCC1)c1ccc2sc3c(-c4cccc5c(=O)cc(N6CC7CCC(C6)O7)oc45)cccc3c2c1` [NU5455] gave an inhibition at 1 µM of 7.8%.
